Measurements published in paper PMC5411959, “Potential Antiosteoporotic Natural Product Lead Compounds That Inhibit 17β-Hydroxysteroid Dehydrogenase Type 2” (Journal of Natural Products, 2017).
Where two headings read alike, the source gives them in different places.

Tests used:
17β-HSD2 = system: 17β-HSD2; parameters: method as in PMID 18533708; conditions: cited from earlier work; for activity: 40 μM, read-out: inhibition of 17β-HSD2: % residual activity at 40 μM; for activity / IC50: mean ± SD; for classification (17β-HSD2 inhibition): flavonoid SAR model, Table 4; for IC50: read-out: inhibition of 17β-HSD2: IC50 (μM)
human 17β-HSD2 = molecular target: T1, human 17β-HSD2 (Homo sapiens, UniProt P37059); experiment: 17β-HSD2 activity assay using lysates of HEK-293 cells expressing the recombinant human enzyme; assay type: biochemical; conditions: for IC50: HEK-293 lysates, 200 nM estradiol, 500 μM NAD+, 10 min 37 °C;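 as to all read-outs here: conversion of tritium-labelled estradiol (200 nM, with 500 µM NAD+, 10 min) quantified after TLC separation by scintillation counting, at least three independent measurements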
T1 construct: expressed in transfected cells; host or cells: HEK-293 (ATCC), used as cell lysate
T1 sequence (P37059 1-387): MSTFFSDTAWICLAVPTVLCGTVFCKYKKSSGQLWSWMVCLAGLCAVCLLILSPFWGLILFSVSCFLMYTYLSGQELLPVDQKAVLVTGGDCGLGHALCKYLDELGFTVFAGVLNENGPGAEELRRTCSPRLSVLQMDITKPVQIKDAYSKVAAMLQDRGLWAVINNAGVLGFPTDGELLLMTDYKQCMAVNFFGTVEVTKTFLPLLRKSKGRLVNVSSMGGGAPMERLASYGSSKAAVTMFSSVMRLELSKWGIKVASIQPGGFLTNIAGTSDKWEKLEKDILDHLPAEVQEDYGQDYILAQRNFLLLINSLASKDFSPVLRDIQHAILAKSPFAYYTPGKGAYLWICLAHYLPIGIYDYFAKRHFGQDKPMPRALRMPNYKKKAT

human 17β-HSD1 = molecular target: T2, human 17β-HSD1 (Homo sapiens, UniProt P14061); experiment: 17β-HSD1 activity assay using lysates of HEK-293 cells expressing the recombinant human enzyme; assay type: biochemical; conditions: for 17β-HSD1 inhibition (in words; n.i. = no inhibition): screened at 20 μM; for selectivity factor: 17β-HSD1 versus 17β-HSD2; for selectivity over 17β-HSD1: 17β-HSD2 over 17β-HSD1; for IC50: HEK-293 lysates, 200 nM estrone, 500 μM NADPH; for remaining activity at 20 µM: read-out: 17β-HSD1 remaining activity at 20 μM
T2 construct: expressed in transfected cells; host or cells: HEK-293 (ATCC), used as cell lysate
T2 sequence (P14061 1-328): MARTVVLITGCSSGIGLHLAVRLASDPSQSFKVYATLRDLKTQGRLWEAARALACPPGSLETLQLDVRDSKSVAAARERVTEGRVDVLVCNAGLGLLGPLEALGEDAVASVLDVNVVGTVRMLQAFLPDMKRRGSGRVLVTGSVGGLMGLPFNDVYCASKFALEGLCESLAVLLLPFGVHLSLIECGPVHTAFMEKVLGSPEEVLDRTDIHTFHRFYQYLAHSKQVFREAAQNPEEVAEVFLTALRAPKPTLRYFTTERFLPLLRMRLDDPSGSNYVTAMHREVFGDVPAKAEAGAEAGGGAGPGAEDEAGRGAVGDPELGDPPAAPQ

17β-HSD = system: 17β-HSD; parameters: method as in PMID 11731908; conditions: cited from earlier work
[1] = Compound stability in the test system (repeated and prolonged incubation, thawing-freezing cycles); assay type: physicochemical; conditions: prolonged incubation, IC50 in weeks 1 and 3, thawing-freezing cycles
Excerpt: extent these PAINS should be excluded from further research. Much more data is needed to finally provide directions for the use of PAINS filters4.
Besides these general aspects of PAINS, there are of course many arguments about curcumin itself as a hit. We are aware of the compound’s many reported bioactivities observed in in vitro studies and additionally of its very poor bioavailability. However, this study is a proof of concept study identifying many natural products inhibiting 17β-HSD2 when there is direct access to the binding site and we categorize curcumin as one of them. Why? A very recent analysis of curcumin data […]
Criterion 1. Look for evidence of compound stability in assay buffer/media, including when molecular models are invoked as supporting evidence of target engagement.
We observed no significant changes in inhibition in the experimental repetition also when the incubation time was prolonged. Actually, the assay duration is only 10 minutes and the compound has direct access to the binding site when using cell […]
Criterion 2. Look for the presence of detergent and thiol-scavenging reagents in biochemical assays to mitigate the impact of chemical aggregation and nonspecific thiol reactivity. Are/were any additional counterscreens performed to rule out these phenomena? […]
reactivity would alter the enzymes activities. Also this has not been observed.

human ERα = system: human ERα; parameters: method as in PMID 25106881; conditions: reported; read-out: ERα activation EC50; cited from earlier work

IC50 (human 17β-HSD2) [nM]	SMILES	activity (17β-HSD2) [%]	classification (17β-HSD2 inhibition) (17β-HSD2)	other results
	O=C1CC(c2ccccc2)Oc2ccccc21 (centres unmarked) [compound 19, flavanone]	70.7 ± 2.6	inactive^24	
	O=c1cc(-c2ccccc2)oc2cc(O)cc(O)c12 [compound 27, chrysin]	32.8 ± 5.1	inactive^24	
	O=c1c(-c2ccc(O)cc2)coc2cc(O)cc(O)c12 [compound 32, genistein]		active^24	
3420 ± 740	O=C(Cc1ccc(O)c(Cl)c1)NCc1ccccc1 [compound 16, N-benzyl-2-(3-chloro-4-hydroxyphenyl)acetamide]			17β-HSD1 inhibition (in words; n.i. = no inhibition) (human 17β-HSD1): n.i.
	COc1ccc([C@@H]2CC(=O)c3c(O)cc(O)cc3O2)cc1O [compound 24, hesperetin]	36.4 ± 1.7	inactive^24	
	O=c1c(O)c(-c2ccc(O)cc2)oc2cc(O)cc(O)c12 [compound 30, kaempferol]		active^24	IC50 (17β-HSD2): 0.36 ± 0.04 µM
940 ± 20	COc1cc(C[C@@H](C)[C@H](C)Cc2ccc(O)c(OC)c2)ccc1O [compound 4, (−)-dihydroguaiaretic acid]			selectivity factor (human 17β-HSD1): 8; selectivity over 17β-HSD1 (human 17β-HSD1): ≥ 8 fold; IC50 (human 17β-HSD1): 7700 ± 2200 nM; effect on 17β-HSD activity in placenta microsomes (17β-HSD): no effects
	O=c1cc(-c2ccc(O)cc2)oc2cc(O)cc(O)c12 [compound 29, apigenin]	25.2 ± 0.9	weak^24	IC50 (17β-HSD2): > 20 µM
	O=C1CC(c2ccccc2O)Oc2ccccc21 (centres unmarked) [compound 20, 2´-hydroxyflavanone]	50.7 ± 0.5	inactive^24	
	COc1ccc(-c2coc3cc(O)cc(O)c3c2=O)cc1 [compound 33, biochanin A]		active^24	IC50 (17β-HSD2): 9.9 ± 1.87 µM
1570 ± 160	O=C(Cc1ccc(O)c(Cl)c1)NCCc1ccccc1 [compound 13, 2-(3-chloro-4-hydroxyphenyl)-N-phenethylacetamide]			17β-HSD1 inhibition (in words; n.i. = no inhibition) (human 17β-HSD1): n.i.
3720 ± 170	O=C(/C=C/c1ccc(O)c(O)c1)O[C@H](Cc1ccc(O)c(O)c1)C(=O)O [compound 11, rosmarinic acid]			17β-HSD1 inhibition (in words; n.i. = no inhibition) (human 17β-HSD1): n.i. ^a
	O=c1cc(-c2ccccc2)oc2cc(O)ccc12 [compound 26, 7-hydroxyflavone]	23.1 ± 1.1	weak^24	IC50 (17β-HSD2): > 20 µM
	O=C1CC(c2ccc(O)cc2)Oc2ccccc21 (centres unmarked) [compound 21, 4´-hydroxyflavanone]	63.6 ± 3.5	inactive^24	
	O=c1c(-c2ccc(O)cc2)coc2cc(O)ccc12 [compound 28, daidzein]	58.3 ± 6.1	inactive^24	
	O=C1C[C@@H](c2ccc(O)cc2)Oc2cc(O)cc(O)c21 [compound 23, naringenin]		active^24	IC50 (17β-HSD2): 14.4 ± 4.5 µM
980 ± 240	O=C(Cc1ccc(O)c(Cl)c1)NCCc1c[nH]c2ccccc12 [compound 17, N-(2-(1H-indol-3-yl)ethyl)-2-(3-chloro-4-hydroxyphenyl)acetamide]			17β-HSD1 inhibition (in words; n.i. = no inhibition) (human 17β-HSD1): n.i.
	O=c1c2c(O)cc(O)cc2oc2oc3cc(O)ccc3c12 [compound 8, lupinalbin A]			IC50 (human 17β-HSD1): 49 ± 19 nM
780 ± 160	O=C(Cc1ccc(O)c(Cl)c1)NCc1ccccc1Cl [compound 18, 2-(3-chloro-4-hydroxyphenyl)-N-(2-chlorobenzyl)acetamide]			remaining activity at 20 µM (human 17β-HSD1; 20 μM compound): 54.8 ± 5.8%; selectivity factor (human 17β-HSD1): ∼25
	O=C1CC(c2ccccc2)Oc2ccc(O)cc21 (centres unmarked) [compound 22, 6-hydroxyflavanone]	42.5 ± 1.8	inactive^24	
	O=c1c(O)c(-c2ccc(O)c(O)c2)oc2cc(O)cc(O)c12 [compound 31, quercetin]		active^24	IC50 (17β-HSD2): 1.54 ± 0.22 µM
	O=c1cc(-c2ccccc2)oc2ccccc12 [compound 25, flavone]	63.9 ± 0.6	inactive^24	

SMILES	IC50 (human 17β-HSD2) [nM]	activity (17β-HSD2) [%]	classification (17β-HSD2 inhibition) (17β-HSD2)	other results
CCOC(=O)c1ccc(O)c(OC)c1 [compound 12, ethyl vanillate]	1280 ± 260			17β-HSD1 inhibition (in words; n.i. = no inhibition) (human 17β-HSD1): n.i.
CC(Cc1ccc(O)c(O)c1)C(C)Cc1ccc(O)c(O)c1 (centres unmarked) [compound 1, nordihydroguaiaretic acid]	380 ± 40			times more active toward 17β-HSD2 than 17β-HSD1 (human 17β-HSD1): 15 times; selectivity factor (human 17β-HSD1): 15; selectivity over 17β-HSD1 (human 17β-HSD1): ≥ 8 fold; IC50 (human 17β-HSD1): 5500 ± 1300 nM
COc1cc(/C=C/C(=O)CC(=O)/C=C/c2ccc(O)c(OC)c2)ccc1O [compound 3, curcumin]	1730 ± 200			IC50 values with 0.1% Triton-X100 added, versus absence of detergent (human 17β-HSD2; 0.1% Triton-X100 in reaction mixture): comparable; selectivity factor (human 17β-HSD1): ∼12; remaining activity at 20 µM (human 17β-HSD1): 52.2 ± 7.1%; stability in the test system [1]: seemed to be stable
O=c1c(-c2ccc(O)cc2O)coc2cc(O)cc(O)c12 [compound 9, 2′-hydroxygenistein]	2030 ± 370			classification (17β-HSD2 inhibition) (human 17β-HSD2; flavonoid SAR model, Table 4): active; selectivity factor (human 17β-HSD1): 0.5; IC50 (human 17β-HSD1): 1090 ± 60 nM; EC50 (human ERα): 6100 nM
